{"source": "patent US9856304B2", "about": "“Peptide and application thereof” (Saitama Medical University, priority 2013, dated 2018)", "origin": "cited, not measured here", "data": [{"system": "pancreatic β cells", "settings": "as described in Patent Document 1; cited from earlier work", "values": [{"substance": "Peptide A: 19 amino acid fragment of human TM4SF20, Position 98 to 116, from Patent Document 1 (ALYCMLISIQALLKGPLMC; listed as Homo sapiens)", "activity for promoting increase in pancreatic β cells": "not as high as expected"}, {"substance": "B: 19 amino acid fragment of human TM4SF20, Position 78 to 96, from Patent Document 1 (CNNRTGMFLSSLFSVITVI; listed as Homo sapiens)", "activity for promoting increase in pancreatic β cells": "not as high as expected"}, {"substance": "C: 19 amino acid fragment of human TM4SF20, Position 161 to 179, from Patent Document 1 (TSNDTMASGWRASSFHFDS; listed as Homo sapiens)", "activity for promoting increase in pancreatic β cells": "not as high as expected"}]}]}
